Assays:
[1] = target: T1, interaction of TLR2 with MyD88 (Homo sapiens, UniProt O60603); test: Co-immunoprecipitation of TLR2 with MyD88 in THP-1 cells; assay type: cell-based; conditions: C29 150 μM, P3C 50 ng/mL, 15 and 30 minutes, statistical significance at 30 minutes
T1 construct: host or cells: THP-1 cells, PMA 20 ng/mL for 24 hrs, P3C-stimulated
Protocol: FIG. 2. C29 inhibits ligand-induced interaction of TLR2 with MyD88 and blocks MAPK and NF-κβ activation. (A) THP-1 cells were cultured in the presence of PMA (20 ng/mL) for 24 hrs and washed twice in media. THP-1 human monocytes were pretreated with media, vehicle (195 μM NaOH), or C29 (150 μM) for 1 hr and treated with P3C (50 ng/mL) in the presence of media, vehicle, or C29 for 15 or 30 min. Co-immunoprecipitation (IP) was carried out using anti-MyD88 antibody and Western analysis (IB) using whole cell lysates. (B) Densitometry analysis (mean±SEM) of 3 independent experiments as shown in (A). (C) Murine peritoneal macrophages were pretreated for 1 hr with media, vehicle (65 μM NaOH), or C29 (50 μM) and treated with P3C (50 ng/mL) for 5-30 min in the presence of media, vehicle, or C29. IB was performed using whole cell lysates and antibodies directed against the signaling intermediates indicated. β-actin was probed as a loading protein. […]
Cells were treated and washed once with 1×PBS and lysed using buffer containing 20 mM HEPES (pH 7.4), 150 mM NaCl, 1 mM EDTA, 1 mM EGTA (pH 8.0), 50 mM NaF, 0.5% Triton X-100, 1 mM Na3VO4, 1 mM DTT, 1 mM PMSF, and protease inhibitor (Roche Applied Science, Indianapolis, IN). Cells were harvested and protein was quantified using BCA Protein assay reagents (Thermo Scientific/Pierce, Rockford, IL). […]

[2] = Thin layer chromatography of C29 in NaOH or organic solvent (imine cleavage); assay type: physicochemical
Protocol: FIG. 11. C29 L reproduces the TLR2 inhibitory activity observed with C29. (A) C29 dissolved in NaOH generates ortho-vanillin (“C29L”) and 3-amino-2-methylbenzoic acid (“C29R”). (B) TLC plate coated with silica was spotted with C29 dissolved in 65 μM NaOH, C29 dissolved in ethyl acetate (organic solvent), and a mixture of both. The plate was placed in solvent and visualized using a KMnO4 stain. (C, D) Total RNA was extracted from murine peritoneal macrophages that had been pretreated for 1 hr with vehicle (65 μM NaOH), C29 (25 μM or 50 μM), C29L (25 μM or 50 μM), or C29R (25 μM or 50 μM) and then stimulated with P3C (50 ng/mL), P2C (100 ng/mL), or LPS (100 ng/mL) for 1 hr in the presence of vehicle, C29, C29L, or C29R. TNF-α mRNA was measured as described in FIG. 1, panel D. Quantitative real-time results are representative of 2 independent experiments each carried out in duplicate (*, p≤0.05; **, p≤0.01; ***, p≤0.001; ****, p≤0.0001).
To preclude cytotoxicity from DMSO, C29 was dissolved in 65 μM NaOH in H2O. […] The two cleavage products, C29L and C29R, were tested to determine if either would reproduce the TLR2 inhibitory activity of C29.

T1 sequence (O60603 21-784): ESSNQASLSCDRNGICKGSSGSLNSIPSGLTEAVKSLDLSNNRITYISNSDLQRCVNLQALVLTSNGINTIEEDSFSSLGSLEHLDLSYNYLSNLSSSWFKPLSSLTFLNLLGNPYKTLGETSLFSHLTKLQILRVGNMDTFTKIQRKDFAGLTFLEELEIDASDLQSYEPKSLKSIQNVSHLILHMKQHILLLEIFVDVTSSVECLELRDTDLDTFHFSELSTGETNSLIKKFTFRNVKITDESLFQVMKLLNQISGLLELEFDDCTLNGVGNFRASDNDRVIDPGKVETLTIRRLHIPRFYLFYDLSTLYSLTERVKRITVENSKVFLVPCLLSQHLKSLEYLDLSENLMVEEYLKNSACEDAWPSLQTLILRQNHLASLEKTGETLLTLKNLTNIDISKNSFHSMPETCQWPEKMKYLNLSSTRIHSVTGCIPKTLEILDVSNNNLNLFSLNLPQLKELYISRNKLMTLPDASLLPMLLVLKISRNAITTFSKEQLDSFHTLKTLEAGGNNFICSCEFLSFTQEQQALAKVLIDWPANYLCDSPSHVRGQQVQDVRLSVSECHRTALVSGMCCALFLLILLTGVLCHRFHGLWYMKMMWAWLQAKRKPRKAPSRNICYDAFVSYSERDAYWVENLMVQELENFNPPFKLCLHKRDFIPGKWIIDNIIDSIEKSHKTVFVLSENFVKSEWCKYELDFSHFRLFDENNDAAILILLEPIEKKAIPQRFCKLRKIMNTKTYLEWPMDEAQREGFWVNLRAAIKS

Structure (SMILES): COc1cccc(/C=N/c2cccc(C(=O)O)c2C)c1O [Compound C29]
- interaction between endogenous TLR2 and MyD88 (co-IP) [1]: diminished the interaction
- stability of imine linkage (TLC) ([2]; dissolved in 65 μM NaOH in H2O): cleaved into these two species
- stability of imine linkage (TLC) ([2]; dissolved in an organic solvent (ethyl acetate)): not when dissolved in an organic solvent
